Results taken from PubChem BioAssay AID2060497 (Molecular Pharmacology Branch, DTP, NCI, 2025).

Test system: 317291-083-R-J1-PDC complex spheroids, viability
Assay: Anticancer human tumor 317291-083-R-J1-PDC patient-derived soft tissue sarcoma cell line growth inhibition [GQUAD]
Conditions: for IC50: curve of first compound; for viability, T/C: stronger effect = lower value
How it was run: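 Viability of tumor cells grown as complex spheroids with endothelial and stromal cells, exposed to drug combinations. Top concentration at or near clinical Cmax (else 10 microM), diluted in half-log increments.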

[1] = second compound 0.0316 µM, first compound 0.0316 µM
[2] = second compound 0.0316 µM, first compound 0.1 µM
[3] = second compound 0.0316 µM, first compound 0.316 µM
[4] = second compound 0.0316 µM, first compound 1 µM
[5] = second compound 0.0316 µM, first compound 3.16 µM
[6] = second compound 0.0316 µM, first compound 10 µM
[7] = second compound 0.1 µM, first compound 0.0316 µM
[8] = second compound 0.1 µM, first compound 0.1 µM
[9] = second compound 0.1 µM, first compound 0.316 µM
[10] = second compound 0.1 µM, first compound 1 µM
[11] = second compound 0.1 µM, first compound 3.16 µM
[12] = second compound 0.1 µM, first compound 10 µM
[13] = second compound 0.316 µM, first compound 0.0316 µM
[14] = second compound 0.316 µM, first compound 0.1 µM
[15] = second compound 0.316 µM, first compound 0.316 µM
[16] = second compound 0.316 µM, first compound 1 µM
[17] = second compound 0.316 µM, first compound 3.16 µM
[18] = second compound 0.316 µM, first compound 10 µM
[19] = second compound 1 µM, first compound 0.0316 µM
[20] = second compound 1 µM, first compound 0.1 µM
[21] = second compound 1 µM, first compound 0.316 µM
[22] = second compound 1 µM, first compound 1 µM
[23] = second compound 1 µM, first compound 3.16 µM
[24] = second compound 1 µM, first compound 10 µM
[25] = second compound 3.16 µM, first compound 0.0316 µM
[26] = second compound 3.16 µM, first compound 0.1 µM
[27] = second compound 3.16 µM, first compound 0.316 µM
[28] = second compound 3.16 µM, first compound 1 µM
[29] = second compound 3.16 µM, first compound 3.16 µM
[30] = second compound 3.16 µM, first compound 10 µM
[31] = second compound 10 µM, first compound 0.0316 µM
[32] = second compound 10 µM, first compound 0.1 µM
[33] = second compound 10 µM, first compound 0.316 µM
[34] = second compound 10 µM, first compound 1 µM
[35] = second compound 10 µM, first compound 3.16 µM
[36] = second compound 10 µM, first compound 10 µM
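Further: spheroids exposed to compounds for one week before readout.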
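Wherever viability, T/C is given: percent viability relative to DMSO vehicle wells taken as 100%.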

C#Cc1c(F)ccc2cc(O)cc(-c3ncc4c(N5CC6CCC(C5)N6)nc(OCC56CCCN5CC(F)C6)nc4c3F)c12 (stereo unspecified) + Cc1[nH]c2ccc(F)cc2c1-c1nc2c3cccnc3c3ncccc3c2[nH]1
IC50 (second compound 0.0316 µM): 6.33 µM
IC50 (second compound 0.1 µM): 5.6 µM
IC50 (second compound 0.316 µM): 4.53 µM
IC50 (second compound 1 µM): 3.28 µM
IC50 (second compound 3.16 µM): < 0.0316 µM
IC50 (second compound 10 µM): 1.36 µM
viability, T/C [1]: 109%
viability, T/C [2]: 92.8%
viability, T/C [3]: 97.8%
viability, T/C [4]: 99%
viability, T/C [5]: 82.2%
viability, T/C [6]: 28.6%
viability, T/C [7]: 90.9%
viability, T/C [8]: 106%
viability, T/C [9]: 94.9%
viability, T/C [10]: 108%
viability, T/C [11]: 75.6%
viability, T/C [12]: 23.9%
viability, T/C [13]: 80.3%
viability, T/C [14]: 58.9%
viability, T/C [15]: 79.3%
viability, T/C [16]: 59.2%
viability, T/C [17]: 72.5%
viability, T/C [18]: 6%
viability, T/C [19]: 66.5%
viability, T/C [20]: 52.8%
viability, T/C [21]: 64.2%
viability, T/C [22]: 54.2%
viability, T/C [23]: 52.5%
viability, T/C [24]: 3%
viability, T/C [25]: 46.6%
viability, T/C [26]: 36.7%
viability, T/C [27]: 35.3%
viability, T/C [28]: 33.7%
viability, T/C [29]: 35.2%
viability, T/C [30]: 0.12%
viability, T/C [31]: 47.8%
viability, T/C [32]: 60.2%
viability, T/C [33]: 55.2%
viability, T/C [34]: 52.9%
viability, T/C [35]: 42%
viability, T/C [36]: 0.16%

O=C(c1cc(Cc2n[nH]c(=O)c3ccccc23)ccc1F)N1CCN(C(=O)C2CC2)CC1 + Cc1[nH]c2ccc(F)cc2c1-c1nc2c3cccnc3c3ncccc3c2[nH]1
IC50 (second compound 0.0316 µM): > 10 µM
IC50 (second compound 0.1 µM): > 10 µM
IC50 (second compound 0.316 µM): > 10 µM
IC50 (second compound 1 µM): > 10 µM
IC50 (second compound 3.16 µM): 8.8 µM
IC50 (second compound 10 µM): > 10 µM
viability, T/C [1]: 97.2%
viability, T/C [2]: 92.2%
viability, T/C [3]: 91.8%
viability, T/C [4]: 91.6%
viability, T/C [5]: 80.6%
viability, T/C [6]: 69.5%
viability, T/C [7]: 108%
viability, T/C [8]: 116%
viability, T/C [9]: 93.4%
viability, T/C [10]: 94.8%
viability, T/C [11]: 92.8%
viability, T/C [12]: 65.3%
viability, T/C [13]: 101%
viability, T/C [14]: 111%
viability, T/C [15]: 101%
viability, T/C [16]: 103%
viability, T/C [17]: 92.8%
viability, T/C [18]: 52.1%
viability, T/C [19]: 109%
viability, T/C [20]: 112%
viability, T/C [21]: 91.5%
viability, T/C [22]: 93.8%
viability, T/C [23]: 90.3%
viability, T/C [24]: 60.2%
viability, T/C [25]: 81.6%
viability, T/C [26]: 82.9%
viability, T/C [27]: 72.8%
viability, T/C [28]: 75.2%
viability, T/C [29]: 69.6%
viability, T/C [30]: 47.2%
viability, T/C [31]: 105%
viability, T/C [32]: 84.4%
viability, T/C [33]: 96.3%
viability, T/C [34]: 81.8%
viability, T/C [35]: 98%
viability, T/C [36]: 58.6%

Cc1[nH]c2ccccc2c1CCNCc1ccc(/C=C/C(=O)NO)cc1 + Cc1[nH]c2ccc(F)cc2c1-c1nc2c3cccnc3c3ncccc3c2[nH]1
IC50 (second compound 0.0316 µM): 0.0434 µM
IC50 (second compound 0.1 µM): 0.0481 µM
IC50 (second compound 0.316 µM): 0.0121 µM
IC50 (second compound 1 µM): 0.00407 µM
IC50 (second compound 3.16 µM): 0.00108 µM
IC50 (second compound 10 µM): < 0.000999 µM
viability, T/C (second compound 0.0316 µM, first compound 0.000999 µM): 114%
viability, T/C (second compound 0.0316 µM, first compound 0.00316 µM): 96.7%
viability, T/C (second compound 0.0316 µM, first compound 0.00999 µM): 96.9%
viability, T/C [1]: 67%
viability, T/C (second compound 0.0316 µM, first compound 0.0999 µM): 6.7%
viability, T/C [3]: 0.62%
viability, T/C (second compound 0.1 µM, first compound 0.000999 µM): 93.4%
viability, T/C (second compound 0.1 µM, first compound 0.00316 µM): 93.3%
viability, T/C (second compound 0.1 µM, first compound 0.00999 µM): 85.2%
viability, T/C [7]: 74%
viability, T/C (second compound 0.1 µM, first compound 0.0999 µM): 8.53%
viability, T/C [9]: 0.12%
viability, T/C (second compound 0.316 µM, first compound 0.000999 µM): 73.3%
viability, T/C (second compound 0.316 µM, first compound 0.00316 µM): 68.5%
viability, T/C (second compound 0.316 µM, first compound 0.00999 µM): 53.9%
viability, T/C [13]: 28.9%
viability, T/C (second compound 0.316 µM, first compound 0.0999 µM): 6.05%
viability, T/C [15]: 0.16%
viability, T/C (second compound 1 µM, first compound 0.000999 µM): 59.9%
viability, T/C (second compound 1 µM, first compound 0.00316 µM): 51%
viability, T/C (second compound 1 µM, first compound 0.00999 µM): 39.7%
viability, T/C [19]: 15.5%
viability, T/C (second compound 1 µM, first compound 0.0999 µM): 3.36%
viability, T/C [21]: 0.14%
viability, T/C (second compound 3.16 µM, first compound 0.000999 µM): 51.5%
viability, T/C (second compound 3.16 µM, first compound 0.00316 µM): 39%
viability, T/C (second compound 3.16 µM, first compound 0.00999 µM): 19.9%
viability, T/C [25]: 27.9%
viability, T/C (second compound 3.16 µM, first compound 0.0999 µM): 1.59%
viability, T/C [27]: 0.17%
viability, T/C (second compound 10 µM, first compound 0.000999 µM): 48.7%
viability, T/C (second compound 10 µM, first compound 0.00316 µM): 49%
viability, T/C (second compound 10 µM, first compound 0.00999 µM): 51.4%
viability, T/C [31]: 13.5%
viability, T/C (second compound 10 µM, first compound 0.0999 µM): 3.62%
viability, T/C [33]: 0.24%
